Earlier results in patent publication US10973866B2, “Compositions and methods for treating, inhibiting the onset, and slowing the progression of erectile dysfunction including naturally occurring age related erectile dysfunction” (K.L.R.M., LLC, priority 2010, dated 2021).

What was measured:
[1] = human, in vivo
erectile function = conditions: men in their 30's with normal erectile function

NC(=O)NCCC[C@H](N)C(=O)O [L-citrulline]
side effects [1]: no known side effects

CCCc1nn(C)c2c(=O)[nH]c(-c3cc(S(=O)(=O)N4CCN(C)CC4)ccc3OCC)nc12 [Viagra]
erectile function as measured by the IIEF (erectile function): increased erectile function
refractory period (erectile function): decrease in the refractory period
